Data as given in patent publication US20250340552A1, “COMPOUNDS, COMPOSITIONS AND METHODS OF TREATING DISORDERS” (HOTSPOT THERAPEUTICS, INC., priority 2022, published 2025).
Read-outs that look alike come from different tables or passages of the source.

Biological target: T1, Cbl-B (Homo sapiens, UniProt Q13191)
T1 construct: MSD-Based Assay for Degradation of Cbl-B in THP-1 Cells; endogenous in cells; host or cells: THP-1 (title) / Jurkat (protocol text)
Experiment: MSD-based assay for degradation of Cbl-B in THP-1 cells
Format: cell-based
Protocol: MSD-Based Assay for Degradation of Cbl-B in THP-1 Cells
Assay plates were then shaken at 600 rpm for 5 minutes, followed by incubation for 24 hours in the 37° C. TC incubator. […] Cell debris was then spun down at maximum speed (about 3200 g) for 30 min and lysates frozen in the −80° C. fridge. Meanwhile, MSD plates (L15XA-3) were coated overnight at 4° C. with 1 ug/mL capture antibody (Anti-Cbl-B antibody, 246C5a and Mouse mAB, ab54362). […] Blocking buffer was 3% Blocker A (MSD, R93BA-4) in TBST. Plates were washed 3× with 150 ul/well of 1×TBST and sample lysates (70 ul/well) then added, followed by shaking for 1 hr at RT, 600 rpm. […] Plates were again washed 3× with 150 ul/well of 1×TBST, followed by addition of Secondary Detection antibody, SULFO-TAG anti-species antibody (Anti Rabbit Antibody (R32AB-5) MSD, R32AB-1) at a final concentration of 1 ug/ml and 25 uL/well, followed by shaking for 1 hr at RT, 600 rpm. Plates were again washed 3× with 150 ul/well of 1×TBST, followed by addition of 1×MSD reading buffer (MSD, R92TC-2), 150 ul/well, diluted from 4× with water.
Compound Dmax were binned into A through D as follows: A indicates >70%, B indicates 50-70%, C indicates 30-50%, D indicates <30%.

[1] = Cbl-B degradation, Jurkat cells seeded (heading: THP-1 cells), 24 hours incubation, MSD readout
[2] = Cbl-B degradation, Jurkat cells seeded (heading: THP-1 cells), 24 hours incubation, MSD readout, read-out: Dmax

T1 sequence (Q13191 whole entry): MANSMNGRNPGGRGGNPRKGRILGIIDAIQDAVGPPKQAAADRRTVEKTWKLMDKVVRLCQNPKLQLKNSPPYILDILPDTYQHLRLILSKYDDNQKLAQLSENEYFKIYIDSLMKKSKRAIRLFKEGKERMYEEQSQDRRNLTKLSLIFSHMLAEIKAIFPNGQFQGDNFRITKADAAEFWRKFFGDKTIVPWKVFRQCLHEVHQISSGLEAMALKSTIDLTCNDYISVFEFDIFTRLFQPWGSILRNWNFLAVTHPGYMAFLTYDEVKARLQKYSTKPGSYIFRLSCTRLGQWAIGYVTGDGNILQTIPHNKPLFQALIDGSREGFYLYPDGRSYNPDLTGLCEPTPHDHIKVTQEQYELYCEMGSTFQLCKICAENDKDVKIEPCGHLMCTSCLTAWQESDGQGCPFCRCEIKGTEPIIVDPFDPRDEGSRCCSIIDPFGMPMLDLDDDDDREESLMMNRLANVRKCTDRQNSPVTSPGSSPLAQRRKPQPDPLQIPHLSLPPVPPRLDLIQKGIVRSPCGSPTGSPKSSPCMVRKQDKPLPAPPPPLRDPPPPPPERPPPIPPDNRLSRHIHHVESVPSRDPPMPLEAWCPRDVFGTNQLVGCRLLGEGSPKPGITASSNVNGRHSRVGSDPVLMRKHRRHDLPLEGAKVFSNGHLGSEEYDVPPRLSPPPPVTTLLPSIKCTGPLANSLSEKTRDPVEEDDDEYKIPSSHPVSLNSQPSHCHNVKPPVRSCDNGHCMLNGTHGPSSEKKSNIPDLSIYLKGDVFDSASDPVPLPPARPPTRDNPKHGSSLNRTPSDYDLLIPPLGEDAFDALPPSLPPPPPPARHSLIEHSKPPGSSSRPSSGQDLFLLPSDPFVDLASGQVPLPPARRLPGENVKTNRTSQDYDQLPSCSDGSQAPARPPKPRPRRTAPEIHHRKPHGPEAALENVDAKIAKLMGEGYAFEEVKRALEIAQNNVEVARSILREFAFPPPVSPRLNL

| DC50 [1] [nM] | Dmax [2] [%] | Structure (SMILES) | Dmax (THP-1) [%] |
| --- | --- | --- | --- |
| < 30 | > 70 | CN(CCCN1CCN(Cc2cc(C(F)(F)F)c3cn(-c4cccc([C@H](c5nncn5C)C5CCC5)c4)c(=O)n3c2)CC1)C(=O)c1ccc(N2CCN(c3ccc4c(c3)CN([C@@H]3CCC(=O)NC3=O)C4=O)CC2)cc1 (single isomer, unassigned) [Compound 123] |  |
| < 30 | > 70 | CN(CCCN1CCN(Cc2cc(C(F)(F)F)c3cn(-c4cccc([C@H](c5nncn5C)C5CCC5)c4)c(=O)n3c2)CC1)C(=O)c1ccc(N2CCN(c3ccc4c(c3)CN([C@H]3CCC(=O)NC3=O)C4=O)CC2)cc1 (single isomer, unassigned) [Compound 124] |  |
| 30 to 300 | 50 to 70 | Cn1cnnc1[C@@H](c1cccc(-n2cc3c(C(F)(F)F)cc(CN4CCN(CCc5ccc(N6CCN(c7ccc8c(c7)CN([C@@H]7CCC(=O)NC7=O)C8=O)CC6)cc5)CC4)cn3c2=O)c1)C1CCC1 (single isomer, unassigned) [Compound 125] |  |
| < 30 | > 70 | Cn1cnnc1[C@@H](c1cccc(-n2cc3c(C(F)(F)F)cc(CN4CCN(CCc5ccc(N6CCN(c7ccc8c(c7)CN([C@H]7CCC(=O)NC7=O)C8=O)CC6)cc5)CC4)cn3c2=O)c1)C1CCC1 (single isomer, unassigned) [Compound 126] |  |
| 300 to 1000 |  | CN(CCN(C)C(=O)c1ccc(N2CCN(c3ccc4c(c3)CN([C@@H]3CCC(=O)NC3=O)C4=O)CC2)cc1)Cc1cc(C(F)(F)F)c2cn(-c3cccc([C@H](c4nncn4C)C4CCC4)c3)c(=O)n2c1 (single isomer, unassigned) [Compound 139] |  |
| 30 to 300 |  | CN(CCN(C)C(=O)c1ccc(N2CCN(c3ccc4c(c3)CN([C@H]3CCC(=O)NC3=O)C4=O)CC2)cc1)Cc1cc(C(F)(F)F)c2cn(-c3cccc([C@H](c4nncn4C)C4CCC4)c3)c(=O)n2c1 (single isomer, unassigned) [Compound 140] |  |
| > 10000 | 30 to 50 | CN(CCN(C)C(=O)c1cc(C(F)(F)F)c2cn(-c3cccc([C@H](c4nncn4C)C4CCC4)c3)c(=O)n2c1)C(=O)c1ccc(N2CCN(c3ccc4c(c3)CN([C@H]3CCC(=O)NC3=O)C4=O)CC2)cc1 (single isomer, unassigned) [Compound 142] |  |
| < 30 | 50 to 70 | Cn1cnnc1[C@@H](c1cccc(-n2cc3c(C(F)(F)F)cc(CN4CCC[C@@H](OCCc5ccc(CN6CCN(c7ccc8c(c7)CN([C@H]7CCC(=O)NC7=O)C8=O)CC6)cc5)C4)cn3c2=O)c1)C1CCC1 (single isomer, unassigned) [Compound 144] |  |
| > 10000 | < 30 | Cn1cnnc1[C@@H](c1cccc(-n2cc3c(C(F)(F)F)cc(CN4CCC(OCc5cccc(C(=O)N6CCN(c7ccc8c(c7)CN([C@@H]7CCC(=O)NC7=O)C8=O)CC6)c5)CC4)cn3c2=O)c1)C1CCC1 (single isomer, unassigned) [Compound 153] |  |
| 300 to 1000 | 30 to 50 | Cn1cnnc1[C@@H](c1cccc(-n2cc3c(C(F)(F)F)cc(CN4CCC(OCc5cccc(C(=O)N6CCN(c7ccc8c(c7)CN([C@H]7CCC(=O)NC7=O)C8=O)CC6)c5)CC4)cn3c2=O)c1)C1CCC1 (single isomer, unassigned) [Compound 154] |  |
| > 10000 | < 30 | Cn1cnnc1[C@@H](c1cccc(-n2cc3c(C(F)(F)F)cc(CN4CCC(OCc5ccc(N6CCN(c7ccc8c(c7)CN([C@@H]7CCC(=O)NC7=O)C8=O)CC6)cc5)CC4)cn3c2=O)c1)C1CCC1 (single isomer, unassigned) [Compound 155] |  |
| < 30 | 50 to 70 | Cn1cnnc1[C@@H](c1cccc(-n2cc3c(C(F)(F)F)cc(CN4CCC(OCc5ccc(N6CCN(c7ccc8c(c7)CN([C@H]7CCC(=O)NC7=O)C8=O)CC6)cc5)CC4)cn3c2=O)c1)C1CCC1 (single isomer, unassigned) [Compound 156] |  |
| > 10000 | < 30 | Cn1cnnc1[C@@H](c1cccc(-n2cc3c(C(F)(F)F)cc(CN4CCC(OCc5ccc(C(=O)N6CCN(c7ccc8c(c7)CN([C@@H]7CCC(=O)NC7=O)C8=O)CC6)cc5)CC4)cn3c2=O)c1)C1CCC1 (single isomer, unassigned) [Compound 157] |  |
| < 30 | > 70 | Cn1cnnc1[C@@H](c1cccc(-n2cc3c(C(F)(F)F)cc(CN4CCC(OCc5ccc(C(=O)N6CCN(c7ccc8c(c7)CN([C@H]7CCC(=O)NC7=O)C8=O)CC6)cc5)CC4)cn3c2=O)c1)C1CCC1 (single isomer, unassigned) [Compound 158] |  |

The remaining lines, values behind:

| Structure (SMILES) | DC50 [1] [nM] | Dmax [2] [%] | Dmax (THP-1) [%] |
| --- | --- | --- | --- |
| Cn1cnnc1[C@@H](c1cccc(-n2cc3c(C(F)(F)F)cc(CN4CCC[C@H](OCCc5ccc(CN6CCN(c7ccc8c(c7)CN([C@@H]7CCC(=O)NC7=O)C8=O)CC6)cc5)C4)cn3c2=O)c1)C1CCC1 (single isomer, unassigned) [Compound 127] | > 10000 | < 30 |  |
| Cn1cnnc1[C@@H](c1cccc(-n2cc3c(C(F)(F)F)cc(CN4CCC[C@H](OCCc5ccc(CN6CCN(c7ccc8c(c7)CN([C@H]7CCC(=O)NC7=O)C8=O)CC6)cc5)C4)cn3c2=O)c1)C1CCC1 (single isomer, unassigned) [Compound 128] | < 30 | 50 to 70 |  |
| Cn1cnnc1[C@@H](c1cccc(-n2cc3c(C(F)(F)F)cc(CN4CCN(C(=O)CN5CCC(CN6CCN(c7ccc8c(c7)CN([C@H]7CCC(=O)NC7=O)C8=O)CC6)CC5)CC4)cn3c2=O)c1)C1CCC1 (single isomer, unassigned) [Compound 130] | 30 to 300 | 50 to 70 |  |
| Cn1cnnc1CC1(c2cccc(-n3cc4c(C(F)(F)F)cc(CN5CCN(C(=O)CN6CCC(CN7CCN(c8ccc9c(c8)CN([C@@H]8CCC(=O)NC8=O)C9=O)CC7)CC6)CC5)cn4c3=O)c2)COC1 (single isomer, unassigned) [Compound 131] | > 10000 | 30 to 50 |  |
| Cn1cnnc1CC1(c2cccc(-n3cc4c(C(F)(F)F)cc(CN5CCN(C(=O)CN6CCC(CN7CCN(c8ccc9c(c8)CN([C@H]8CCC(=O)NC8=O)C9=O)CC7)CC6)CC5)cn4c3=O)c2)COC1 (single isomer, unassigned) [Compound 132] | < 30 | 50 to 70 |  |
| Cn1cnnc1CC1(c2cccc(-n3cc4c(C(F)(F)F)cc(CN5CCN(CC(=O)N6CCC(CN7CCN(c8ccc9c(c8)CN([C@@H]8CCC(=O)NC8=O)C9=O)CC7)CC6)CC5)cn4c3=O)c2)COC1 (single isomer, unassigned) [Compound 133] | 30 to 300 | > 70 |  |
| Cn1cnnc1CC1(c2cccc(-n3cc4c(C(F)(F)F)cc(CN5CCN(CC(=O)N6CCC(CN7CCN(c8ccc9c(c8)CN([C@H]8CCC(=O)NC8=O)C9=O)CC7)CC6)CC5)cn4c3=O)c2)COC1 (single isomer, unassigned) [Compound 134] | < 30 | > 70 |  |
| CN(CCN(C)C(=O)c1cc(C(F)(F)F)c2cn(-c3cccc([C@H](c4nncn4C)C4CCC4)c3)c(=O)n2c1)C(=O)c1ccc(N2CCN(c3ccc4c(c3)CN([C@@H]3CCC(=O)NC3=O)C4=O)CC2)cc1 (single isomer, unassigned) [Compound 141] | > 10000 | < 30 |  |
| Cn1cnnc1[C@@H](c1cccc(-n2cc3c(C(F)(F)F)cc(CN4CCC[C@@H](OCCc5ccc(CN6CCN(c7ccc8c(c7)CN([C@@H]7CCC(=O)NC7=O)C8=O)CC6)cc5)C4)cn3c2=O)c1)C1CCC1 (single isomer, unassigned) [Compound 143] | 300 to 1000 | 30 to 50 |  |
| CN(CCOC1CCN(Cc2cc(C(F)(F)F)c3cn(-c4cccc([C@H](c5nncn5C)C5CCC5)c4)c(=O)n3c2)CC1)C(=O)c1ccc(N2C3CC2CN(c2ccc4c(c2)CN([C@@H]2CCC(=O)NC2=O)C4=O)C3)cc1 (single isomer, unassigned) [Compound 145] | > 10000 |  | 30 to 50 |
| CN(CCOC1CCN(Cc2cc(C(F)(F)F)c3cn(-c4cccc([C@H](c5nncn5C)C5CCC5)c4)c(=O)n3c2)CC1)C(=O)c1ccc(N2C3CC2CN(c2ccc4c(c2)CN([C@H]2CCC(=O)NC2=O)C4=O)C3)cc1 (single isomer, unassigned) [Compound 146] | > 10000 | < 30 |  |
| CN(CCOCc1cc(C(F)(F)F)c2cn(-c3cccc([C@H](c4nncn4C)C4CCC4)c3)c(=O)n2c1)C(=O)c1ccc(N2CCN(c3ccc4c(c3)CN([C@@H]3CCC(=O)NC3=O)C4=O)CC2)cc1 (single isomer, unassigned) [Compound 147] | > 10000 | < 30 |  |
| CN(CCOCc1cc(C(F)(F)F)c2cn(-c3cccc([C@H](c4nncn4C)C4CCC4)c3)c(=O)n2c1)C(=O)c1ccc(N2CCN(c3ccc4c(c3)CN([C@H]3CCC(=O)NC3=O)C4=O)CC2)cc1 (single isomer, unassigned) [Compound 148] | 30 to 300 | 30 to 50 |  |
| Cn1cnnc1[C@@H](c1cccc(-n2cc3c(C(F)(F)F)cc(CN4CCC(C5CCN(C(=O)c6ccc(N7CCN(c8ccc9c(c8)CN([C@@H]8CCC(=O)NC8=O)C9=O)CC7)cc6)CC5)CC4)cn3c2=O)c1)C1CCC1 (single isomer, unassigned) [Compound 161] | 300 to 1000 | < 30 |  |
